# Measured values reported in patent US6440984B1, “Use of aryl-substituted pyrimidines as insecticidal and acaricidal agents” (BASF Aktiengesellschaft, priority 1998, dated 2002).
# Tested on: Aphis Fabae, Mixed Instar, Bean Aphid (BA)
# Experiment: Bean aphid (BA) foliar spray test, mortality after 2 days
# Format: in vivo
# Conditions: Aphis fabae, 48 h, rating scale, read-out: BA AD-FOLIAR 300 (ppm)
# Method: (§1) Test solutions are prepared by dissolving the test compound in a 35% acetone in water mixture to give a concentration of 10,000 ppm. Subsequent dilutions are made with water as needed.
# Aphis Fabae, Mixed Instar, Bean Aphid (BA)
# Pots containing single nasturtium plants (Tropaeolum sp.) about 5 cm tall are infested with about 100-200 aphids one day before the test. Each pot is sprayed with the test solution for 2 revolutions of a 4 rpm turntable in a hood. The spray is directed to give complete coverage of the plants and aphids. The sprayed pots are set on their sides on white trays and held for 2 days, following which mortality estimates are made. Essentially the same method is used with respect to cotton aphid (CA).
row,SMILES,pest or weed control at 300 ppm [%]
1,COc1ccc(-c2ccnc(Oc3ccc(F)c(C(F)(F)F)c3)n2)cc1 [Compound 153],45 to 75
2,FC(F)(F)c1cccc(Oc2nccc(-c3ccc(Cl)c(Cl)c3)n2)c1 [Compound 154],45 to 75
3,CSc1cc(-c2cccc(C(F)(F)F)c2)nc(Oc2cccc(C(F)(F)F)c2)n1 [Compound 108],45 to 75
4,CN(C)c1cc(-c2cccc(C(F)(F)F)c2)nc(Oc2cccc(C(F)(F)F)c2)n1 [Compound 111],76 to 100
5,Fc1cccc(Oc2nccc(-c3ccc(Cl)cc3)n2)c1 [Compound 137],76 to 100
6,Fc1ccc(Oc2nccc(-c3ccccc3)n2)cc1C(F)(F)F [Compound 130],0 to 45
7,N#Cc1cccc(Oc2nccc(-c3ccc(Cl)cc3)n2)c1 [Compound 141],45 to 75
8,COc1cccc(Oc2nccc(-c3ccc(Cl)cc3)n2)c1 [Compound 143],76 to 100
9,Clc1ccc(-c2ccnc(Oc3ccc(Cl)c(Cl)c3)n2)cc1 [Compound 151],45 to 75

# Same assay, conditions: rating scale
row,SMILES,BA AD-FOLIAR 300 (ppm)
1,Fc1cc(-c2ccnc(Oc3ccc(Cl)c(Cl)c3)n2)cc(C(F)(F)F)c1 [Compound 58],C (C 76-100% kill)
2,O=[N+]([O-])c1ccc(Oc2nccc(-c3ccc(C(F)(F)F)cc3)n2)cc1C(F)(F)F [Compound 33],B (B 45-75% kill)
3,Fc1cc(F)cc(-c2ccnc(Oc3cccc(C(F)(F)F)c3)n2)c1 [Compound 61],C (C 76-100% kill)
4,CC(C)(C)c1ccc(-c2ccnc(Oc3ccc([N+](=O)[O-])c(C(F)(F)F)c3)n2)cc1 [Compound 26],B (B 45-75% kill)
5,O=[N+]([O-])c1ccc(-c2ccnc(Oc3cccc(C(F)(F)F)c3)n2)cc1 [Compound 9],B (B 45-75% kill)
6,FC(F)(F)Oc1ccc(-c2ccnc(Oc3cc(C(F)(F)F)cc(C(F)(F)F)c3)n2)cc1 [Compound 45],C (C 76-100% kill)
7,FC(F)(F)c1ccc(-c2ccnc(Oc3ccc(Cl)c(Cl)c3)n2)cc1 [Compound 28],A (A 0-45% kill)
8,CCc1ccc(-c2ccnc(Oc3ccc(Cl)c(C(F)(F)F)c3)n2)cc1 [Compound 17],C (C 76-100% kill)
9,CC(C)(C)c1ccc(-c2ccnc(Oc3ccc(Cl)c(C(F)(F)F)c3)n2)cc1 [Compound 25],A (A 0-45% kill)
10,Fc1ccc(Oc2nccc(-c3ccc(C(F)(F)F)cc3)n2)cc1Cl [Compound 31],B (B 45-75% kill)

# Tested on: Spodoptera Eridania, 3rd Instar Larvae, Southern Armyworm (SAW)
# Experiment: Southern armyworm (SAW) leaf-dip test, observations at 5 days
# Format: in vivo
# Conditions: Southern Army Worm, rating scale
# Method: as §1
# Spodoptera Eridania, 3rd Instar Larvae, Southern Armyworm (SAW)
# A Sieva lima bean leaf expanded to 7-8 cm in length is dipped in the test solution with agitation for 3 seconds and allowed to dry in a hood. The leaf is then placed in a 100×10 mm petri dish containing a damp filter paper on the bottom and ten 3rd instar caterpillars. At 5 days, observations are made of mortality, reduced feeding, or any interference with normal molting.
row,SMILES,SAW 2^ND-FOLIAR 1000 (ppm)
1,Fc1ccc(Oc2nccc(-c3ccccc3)n2)cc1C(F)(F)F [Compound 6],A (A 0-45% kill)
2,O=[N+]([O-])c1ccc(Oc2nccc(-c3cccc(OC(F)(F)F)c3)n2)cc1C(F)(F)F [Compound 40],A (A 0-45% kill)
3,FC(F)(F)Oc1ccc(-c2ccnc(Oc3cc(Cl)cc(Cl)c3)n2)cc1 [Compound 44],A (A 0-45% kill)
4,FC(F)(F)c1cc(Oc2nccc(-c3ccc(Cl)cc3)n2)ccc1Cl [Compound 1],A (A 0-45% kill)
5,O=[N+]([O-])c1ccc(Oc2nccc(-c3ccc(Cl)cc3)n2)cc1C(F)(F)F [Compound 3],B (B 45-75% kill)
6,Fc1cc(-c2ccnc(Oc3cccc(C(F)(F)F)c3)n2)cc(C(F)(F)F)c1 [Compound 52],A (A 0-45% kill)
7,O=[N+]([O-])c1ccc(Oc2nccc(-c3ccccc3)n2)cc1C(F)(F)F [Compound 8],A (A 0-45% kill)

# Same assay, conditions: Spodoptera eridania, foliar, 120 h, Southern Army Worm, rating scale, read-out: SAW 2^ND-FOLIAR 1000 (ppm)
row,SMILES,pest or weed control at 1000 ppm [%]
1,FC(F)(F)c1cccc(Oc2nc(Cl)cc(-c3cccc(C(F)(F)F)c3)n2)c1 [Compound 110],76 to 100
2,CSc1cc(-c2ccc(Cl)cc2)nc(Oc2cccc(Cl)c2)n1 [Compound 119],45 to 75
3,Fc1ccc(Oc2nccc(-c3cccc(C(F)(F)F)c3)n2)cc1C(F)(F)F [Compound 112],0 to 45
4,Fc1ccc(Oc2nccc(-c3ccc(Br)cc3)n2)cc1C(F)(F)F [Compound 162],0 to 45
